Measurements from the NIST ThermoML archive (doi:10.1016/j.jct.2019.03.040).

How the values were obtained:
[1] = Liquid; for Critical pressure / Critical temperature: Resistive pulse heating; for thermal diffusivity: 101.33 kPa, Laser flash apparatus
[2] = molar heat capacity at constant pressure; settings: 101.33 kPa, Small sample (50 mg) DSC

CC(=O)CCC(=O)O [4-oxopentanoic acid]
[1]
Settings | Critical pressure [kPa] | Critical temperature [K]
– | 5310 | 766

[2], Metastable liquid
Settings | molar heat capacity at constant pressure [J/K/mol]
302.62 K | 245.93
303.12 K | 246.16
303.62 K | 246.05
304.12 K | 246.28
304.62 K | 246.16
305.12 K | 246.51
305.62 K | 246.4
306.12 K | 246.86
306.62 K | 246.86
307.12 K | 246.86
307.62 K | 246.86
308.12 K | 246.98
308.62 K | 247.44
309.12 K | 247.09
309.62 K | 247.33
310.12 K | 247.44
310.62 K | 248.02
311.12 K | 247.91
311.62 K | 247.91
312.12 K | 247.91
312.62 K | 247.91
313.12 K | 247.56
313.62 K | 247.91
314.12 K | 248.25
314.62 K | 248.37
315.12 K | 248.49
315.62 K | 248.83
316.12 K | 248.95
316.62 K | 249.53
317.12 K | 249.65
317.62 K | 249.76
318.12 K | 250.46
318.62 K | 250.23
319.12 K | 250
319.62 K | 250.34
320.12 K | 250.11
320.62 K | 250.46
321.12 K | 250.34
321.62 K | 250.46
322.12 K | 250.58
322.62 K | 250.46
323.12 K | 251.16
323.62 K | 251.04
324.12 K | 251.27
324.62 K | 251.51
325.12 K | 251.27
325.62 K | 251.39
326.12 K | 251.74
326.62 K | 252.2
327.12 K | 251.85
327.62 K | 251.85
328.12 K | 251.85
328.62 K | 252.09
329.12 K | 252.32
329.62 K | 251.85
330.12 K | 252.55
330.62 K | 252.55
331.12 K | 252.67
331.62 K | 253.25
332.12 K | 253.6
332.62 K | 253.83
333.12 K | 254.06
333.62 K | 254.29
334.12 K | 254.06
334.62 K | 254.18
335.12 K | 254.41
335.62 K | 254.41
336.12 K | 254.87
336.62 K | 254.64
337.12 K | 255.11
337.62 K | 255.45
338.12 K | 255.22
338.62 K | 255.22
339.12 K | 255.57
339.62 K | 255.8
340.12 K | 256.03
340.62 K | 256.5
341.12 K | 256.73
341.62 K | 257.08
342.12 K | 257.43
342.62 K | 257.54
343.12 K | 257.66
343.62 K | 257.89
344.12 K | 257.89
344.62 K | 257.31
345.12 K | 257.43
345.62 K | 257.54
346.12 K | 257.89
346.62 K | 258.24
347.12 K | 258.59
347.62 K | 258.7
348.12 K | 258.59
348.62 K | 258.82
349.12 K | 258.94
349.62 K | 258.82
350.12 K | 258.94
350.62 K | 259.17
351.12 K | 259.17
351.62 K | 259.29
352.12 K | 260.21
352.62 K | 260.1
353.12 K | 259.87
353.62 K | 260.33
354.12 K | 260.45
354.62 K | 259.75
355.12 K | 260.21
355.62 K | 260.45
356.12 K | 260.79
356.62 K | 260.79
357.12 K | 260.56
357.62 K | 260.79
358.12 K | 260.45
358.62 K | 260.56
359.12 K | 261.03
359.62 K | 260.68
360.12 K | 260.79
360.62 K | 261.03
361.12 K | 261.38
361.62 K | 261.61
362.12 K | 261.96
362.62 K | 262.07
363.12 K | 262.07
363.62 K | 262.07
364.12 K | 262.88
364.62 K | 262.77
365.12 K | 263.12
365.62 K | 263.7
366.12 K | 264.39
366.62 K | 264.39
367.12 K | 263.93
367.62 K | 263.47
368.12 K | 263.12
368.62 K | 263.12
369.12 K | 263.47
369.62 K | 263.47
370.12 K | 263.7
370.62 K | 263.7
371.12 K | 263.93
371.62 K | 264.05
372.12 K | 264.28
372.62 K | 264.05
373.12 K | 264.28
373.62 K | 264.28
374.12 K | 264.51

CCOC(=O)CCC(C)=O [ethyl levulinate]
[1]
Settings | thermal diffusivity [m2/s]
303.15 K | 7.9e-08
313.15 K | 7.8e-08
323.15 K | 7.7e-08
333.15 K | 7.6e-08
343.15 K | 7.5e-08
353.15 K | 7.4e-08
363.15 K | 7.25e-08
373.15 K | 7.15e-08

[1]
Settings | Critical pressure [kPa] | Critical temperature [K]
– | 2970 | 669

[2], Liquid
Settings | molar heat capacity at constant pressure [J/K/mol]
302.98 K | 275.22
303.48 K | 275.79
303.98 K | 276.51
304.48 K | 276.37
304.98 K | 275.65
305.48 K | 276.08
305.98 K | 275.65
306.48 K | 276.08
306.98 K | 276.95
307.48 K | 277.24
307.98 K | 277.67
308.48 K | 277.52
308.98 K | 277.38
309.48 K | 277.67
309.98 K | 277.96
310.48 K | 278.53
310.98 K | 278.82
311.48 K | 277.96
311.98 K | 278.24
312.48 K | 277.24
312.98 K | 278.53
313.48 K | 278.82
313.98 K | 279.25
314.48 K | 279.25
314.98 K | 279.25
315.48 K | 278.53
315.98 K | 279.25
316.48 K | 278.68
316.98 K | 278.97
317.48 K | 279.69
317.98 K | 279.4
318.48 K | 279.83
318.98 K | 279.69
319.48 K | 279.83
319.98 K | 279.54
320.48 K | 280.55
320.98 K | 280.98
321.48 K | 280.7
321.98 K | 279.97
322.48 K | 280.55
322.98 K | 280.84
323.48 K | 281.42
323.98 K | 281.13
324.48 K | 281.42
324.98 K | 281.56
325.48 K | 281.27
325.98 K | 281.99
326.48 K | 282.57
326.98 K | 282.14
327.48 K | 282.43
327.98 K | 282.57
328.48 K | 283.29
328.98 K | 283.15
329.48 K | 282.86
329.98 K | 283.29
330.48 K | 283.87
330.98 K | 284.01
331.48 K | 284.01
331.98 K | 284.16
332.48 K | 284.44
332.98 K | 284.16
333.48 K | 284.3
333.98 K | 284.01
334.48 K | 284.88
334.98 K | 285.74
335.48 K | 285.6
335.98 K | 285.89
336.48 K | 285.6
336.98 K | 285.89
337.48 K | 285.74
337.98 K | 285.6
338.48 K | 286.17
338.98 K | 286.32
339.48 K | 286.32
339.98 K | 286.03
340.48 K | 286.32
340.98 K | 285.74
341.48 K | 286.17
341.98 K | 286.46
342.48 K | 286.75
342.98 K | 285.89
343.48 K | 286.61
343.98 K | 286.9
344.48 K | 287.76
344.98 K | 288.34
345.48 K | 287.47
345.98 K | 288.63
346.48 K | 288.19
346.98 K | 287.9
347.48 K | 288.05
347.98 K | 288.48
348.48 K | 288.48
348.98 K | 288.19
349.48 K | 289.2
349.98 K | 289.2
350.48 K | 289.35
350.98 K | 289.2
351.48 K | 289.63
351.98 K | 289.2
352.48 K | 289.78
352.98 K | 290.5
353.48 K | 289.78
353.98 K | 290.36
354.48 K | 290.21
354.98 K | 289.92
355.48 K | 289.92
355.98 K | 289.78
356.48 K | 289.92
356.98 K | 291.08
357.48 K | 290.93
357.98 K | 290.64
358.48 K | 290.93
358.98 K | 290.79
359.48 K | 291.51
359.98 K | 292.09
360.48 K | 291.65
360.98 K | 292.09
361.48 K | 292.52
361.98 K | 291.51
362.48 K | 292.66
362.98 K | 292.81
363.48 K | 293.82
363.98 K | 293.53
364.48 K | 293.67
364.98 K | 294.25
365.48 K | 294.39
365.98 K | 295.4
366.48 K | 294.54
366.98 K | 295.83
367.48 K | 295.55
367.98 K | 295.98
368.48 K | 295.83
368.98 K | 296.84
369.48 K | 296.84
369.98 K | 296.27
370.48 K | 296.99
370.98 K | 296.27
371.48 K | 296.55
371.98 K | 296.84
372.48 K | 296.84
372.98 K | 296.84
373.48 K | 296.99
373.98 K | 297.13
